The data set is described as follows: Human HepG2 cell viability assay in 384 well format. It counts as toxicity, cell-based. On the set-up: dose 125 nL, time 70.5 hour; concentration not given beside the values. As to conditions: HepG2 cells, read-out: Inhibition.
Regarding `CC1CCCN(Cc2coc(-c3cccc(F)c3)n2)C1` (stereo not drawn), the cytotoxicity at 70.5 h was -5.26%.
As to `O=C(Nc1ccncc1)N(CCO)Cc1ccsc1`, the cytotoxicity at 70.5 h was -20%.
For `COc1ccc(OC2CCN(C(=O)c3ccc(C)[nH]c3=O)CC2)cc1`, the cytotoxicity at 70.5 h was -5.37%.
With `CCN(CC1COc2ccccc2O1)C(=O)CCn1cncn1` (stereo not drawn) the figure was -5.89%.
The same measure for `Cc1oncc1C(=O)NCc1ccnc(OCC(F)(F)F)c1`: 11%; for `NC(=O)c1cnn2c1NCC(CNCCOc1ccccc1)C2` (stereo not drawn): -5.14%; for `CC(=O)NCc1ccc(C(=O)NC2CCc3nc(C)cn3C2)o1` (stereo not drawn): -3.32%.
With `Cc1nc(CN2CCN(C(=O)NC(C)Cn3ccnc3)CC2)cs1` (stereo not drawn) the figure was -0.978%.
Turning to `COc1c(CNC(c2ccccc2)c2nccn2C)c(C)nn1C` (stereo not drawn), the cytotoxicity at 70.5 h was -0.0475%.
With `COCC(=O)NC(C)Cc1ccc(Br)cc1` (stereo not drawn) the figure was 2.28%; with `Cc1cc(C)cc(C(=O)Nc2cn[nH]c2)c1`, -8.68%.
The same measure for `COCC(=O)NC(C)Cc1cccc(Cl)c1` (stereo not drawn): 5.75%.
The same measure for `CCN(Cc1ccc2c(c1)OCO2)C(=O)c1cccnc1O`: -5.82%.
Take `CN(Cc1ccc(O)cc1)C(=O)NC1CCCN(c2ncccn2)C1` (stereo not drawn): the cytotoxicity at 70.5 h is -3.14%.
For the compound `CC1CCCN(C(=O)NCCCn2cncn2)C1` (stereo not drawn), the cytotoxicity at 70.5 h is -4.06%.
Regarding `CC(Cn1ccnc1)NC(=O)N1CCN(Cc2ccsc2)CC1` (stereo not drawn), the cytotoxicity at 70.5 h is -2.59%.
`CN1CCCC1CNC(=O)CCCOc1ccc(Cl)cc1` (stereo not drawn): the cytotoxicity at 70.5 h is -2.04%.
Turning to `O=C(CCc1nc2ccccc2[nH]1)N1CCCC(n2cccn2)C1` (stereo not drawn), the cytotoxicity at 70.5 h amounted to 2.61%.
With `Cc1occc1C(=O)Nc1cnn(CCN2CCOCC2)c1`, the cytotoxicity at 70.5 h turned out to be 16.8%.
With `O=C(CCS(=O)(=O)c1ccccc1)N1CCCC(n2cccn2)C1` (stereo not drawn) the figure was -2.57%; with `Cc1ccccc1C(=O)Nc1cnn(CCN2CCOCC2)c1`, 5.4%; with `CNc1nc(CNC(=O)Nc2ccccc2C(F)(F)F)cs1`, -2.38%.
The same measure for `CNc1nc(CNC(=O)Nc2cccc(Cl)c2OC)cs1`: -3.54%; for `Cc1nc(C2CCCN2CCS(C)(=O)=O)no1` (stereo not drawn): 21.3%.
Take `COc1ccc(CNCc2c(C(C)C)nn(C)c2OC)cn1`: the cytotoxicity at 70.5 h was -0.773%.
With `CSCCCN1CCCC1c1noc(C(C)C)n1` (stereo not drawn) the figure was -0.353%; with `CCCN(CCC)C(=O)CN(C)C1CCc2ccccc21` (stereo not drawn), -7.56%; with `CC(=O)N1CCCN(C(=O)CCOc2ccc(C(C)C)cc2)CC1`, 21.2%.
The same measure for `COc1ccc(CN2CCCN(C(=O)C(C)n3ccnc3)CC2)cc1` (stereo not drawn): -4.32%.
With `Fc1ccc(-c2nc(CNCCn3cccn3)cs2)cc1` the figure was 0.385%; with `CCS(=O)(=O)CCN1CCCC1c1noc(C)n1` (stereo not drawn), -8.31%; with `CC(=O)NCC1CCN(C(=O)CCOc2ccc(C(C)C)cc2)CC1`, -0.488%.
With `COc1c(CNCc2ccc(N3CCCC3)nc2)c(C(C)C)nn1C`, the cytotoxicity at 70.5 h is -9.28%.
The same measure for `CC(C)c1ccc(OCCC(=O)N2CCCC(C(N)=O)C2)cc1` (stereo not drawn): -5.32%.
The same measure for `CCn1c(CN2CCN(CCO)CC2)nc2c(F)cccc21`: -4.39%.
Consider `Cc1cccc(C(=O)NC(C)CN2CCCC2=O)n1` (stereo not drawn), for which the cytotoxicity at 70.5 h is 21%.
With `CC(C(=O)N1CCN(Cc2ccc(C#N)cc2)CC1)n1ccnc1` (stereo not drawn) the figure was -0.223%.
The same measure for `Cc1nc(-c2ccsc2)ccc1C(=O)NC(C)CN1CCOCC1` (stereo not drawn): -3.57%; for `Cc1ccc(CC(=O)N2CCN(CC(O)C(C)(C)C)CC2)cn1` (stereo not drawn): 0.113%; for `Cc1ccc(CC(=O)N2CCN(CC(C)O)CC2)cn1` (stereo not drawn): -5.27%.
With `CCNc1cc2c(nn1)CCN(C(=O)c1cccnc1N(C)C)C2` the figure was -1.46%; with `CCc1nc(C2CCCN2CCCSC)no1` (stereo not drawn), -4.43%.
For the compound `Cc1ccccc1SCC(=O)NS(=O)(=O)c1ccc2c(c1)OCCO2`, the cytotoxicity at 70.5 h is -2.48%.
The same measure for `CSCC(=O)NS(=O)(=O)c1ccc2c(c1)OCCO2`: 0.628%; for `Cc1csc(CNCc2c(C)nn(C)c2N2CCOCC2)n1`: -0.213%.
Regarding `COC(=O)c1cc(C(=O)N2CCCC(C)C2)n(-c2ccccc2)n1` (stereo not drawn), the cytotoxicity at 70.5 h is -10.2%.
The same measure for `Cc1cc(C)n(CC2CN(CC(=O)Nc3c(C)n[nH]c3C)CCO2)n1` (stereo not drawn): -8.05%.
The same measure for `O=c1oc(-c2ccc(F)cc2)nn1CN1CCN(C2CCCC2)CC1`: -9.32%; for `Cn1ccc(CN2CCC(c3ccccc3)CC2)cc1=O`: -8.13%; for `c1ccc(-c2nc(CNC3CCc4ncnn4C3)co2)cc1` (stereo not drawn): 1.4%.
With `Cc1cc(C[S+]([O-])CC(=O)Nc2c(C)cccc2C)no1` (stereo not drawn) the figure was -8.27%.
For the compound `Cc1cc(C[S+]([O-])CC(=O)NCc2cccs2)no1` (stereo not drawn), the cytotoxicity at 70.5 h was -4.91%.
The same measure for `COc1ccc(-c2nc(CN3CCCC3Cn3cccn3)no2)cc1` (stereo not drawn): -0.173%; for `CC(C(=O)NCc1ccc(N2CCNC(=O)C2)cc1)n1cncn1` (stereo not drawn): 4.32%.
With `CC1CN(Cc2nccn2C)CCN1c1ccc2nncn2n1` (stereo not drawn) the figure was 6.8%.
With `COc1cccc(CN2CCN(c3ccc4nncn4n3)C(C)C2)c1` (stereo not drawn) the figure was 9.6%; with `Cc1cc(C(=O)NCCN2CCCC(C)C2)nn1C` (stereo not drawn), -5.9%.
`CC(C)(C)c1cnc(CN2CCC[C@H]2CO)o1`: the cytotoxicity at 70.5 h stood at 0.665%.
The same measure for `CCc1csc(C2CCCN(C(=O)C3=NN(CC)C(=O)CC3)C2)n1` (stereo not drawn): 3.39%; for `CC(C)(C)c1nc(CN2CCCC2CCc2ccccc2)no1` (stereo not drawn): 13.1%; for `COc1c(C2CCCN2C(=O)c2csc(C(C)C)n2)c(C)nn1C` (stereo not drawn): -12.3%.
With `CC(C)c1nc(C2CCCN2CCc2ccncc2)no1` (stereo not drawn) the figure was 16.2%.
The same measure for `Cc1nc(C)n(C2CCCN(C(=O)CCCOc3ccccc3)C2)n1` (stereo not drawn): 3.66%; for `Cc1cnn(C2CN(Cc3nc(C(C)(C)C)no3)C2)c1`: 20.7%; for `CCn1cnnc1CNC(=O)N1CCN(c2cccc(OC)c2)CC1`: -6.51%.
As to `CCOC(=O)N1CCN(Cc2ccc(OCc3nccn3C)cc2)CC1`, the cytotoxicity at 70.5 h was found to be 1.77%.
With `Cn1ncc2c(=O)[nH]c(CN(Cc3cccc(F)c3)C3CC3)nc21` the figure was 1.56%; with `COc1ccccc1C(O)CNCc1c(C(C)C)nn(C)c1N(C)C` (stereo not drawn), 13.7%.
The same measure for `COC(=O)c1cccn1C1CCN(C(=O)c2cc(C)ccc2O)CC1`: 2.48%; for `COC(=O)c1cccn1C1CCN(C(=O)c2cc(F)ccc2F)CC1`: -1.51%.
With `CC(C)Cc1cc(NC(=O)c2ccc(=O)[nH]n2)n(C)n1` the figure was -2.14%; with `Cc1ccc(N(C)C2CCN(C(=O)c3ccsc3)CC2)nn1`, -13.8%; with `Cc1ccc(NC2CCN(C(=O)c3cccn3C)CC2)nn1`, 32.5%.
Turning to `Cc1ccc(NC2CCN(C(=O)c3ccsc3)CC2)nn1`, the cytotoxicity at 70.5 h is -3.84%.
The same measure for `CCc1nccn1C1CCCN(C(=O)c2ccc3nncn3c2)C1` (stereo not drawn): -6.04%; for `NC(=O)c1cc(C2CCCN(C(=O)CCc3ccsc3)C2)n[nH]1` (stereo not drawn): -2.62%.
Turning to `CCn1cc(CN2CCCN(C(=O)CCCn3cncn3)CC2)cn1`, the cytotoxicity at 70.5 h worked out at 1.08%.
The same measure for `CCc1cnc(CNc2ccc(C(=O)N3CCCC(C)C3)cc2C)o1` (stereo not drawn): -10.4%; for `O=C(CCc1cscn1)N1CCCC(c2ccn[nH]2)C1` (stereo not drawn): -8.08%.
With `CN(Cc1nc(N)c2ccccc2n1)C1CCCN(c2cccnn2)C1` (stereo not drawn) the figure was -5.77%; with `CCc1nccn1C1CCCN(C(=O)c2ccc3c(c2)OCO3)C1` (stereo not drawn), -6.7%.
With `Cc1cc(C(=O)N2CCCCC2C)ccc1NCCCO` (stereo not drawn) the figure was -17.1%; with `CCN(C(=O)CN(C)C(c1cccc(F)c1)c1ccccn1)C1CC1` (stereo not drawn), -5.47%.
As for `Cc1nn(C)c(C)c1C1COCCN1C(=O)c1cnc(N)c(Cl)c1` (stereo not drawn), the cytotoxicity at 70.5 h is -3.52%.
With `Cc1cccc(CC(=O)NCCCOC(C)C)c1` the figure was -10.5%.
With `CCOCC(O)CN1CCN(C(=O)c2ccc(OC)cc2F)CC1` (stereo not drawn) the figure was -21.8%.
Turning to `Cc1nc(C2CCCN(C(=O)CCCn3cccn3)C2)no1` (stereo not drawn), the cytotoxicity at 70.5 h was -11.8%.
With `Cc1noc(CN2CCN(Cc3cccs3)CC2)n1` the figure was -25.4%; with `CNS(=O)(=O)Cc1ccc(CNc2cncc(-n3cccn3)n2)cc1`, -18.1%.
The same measure for `CN(Cc1ccsc1)C(=O)c1cccc(NS(C)(=O)=O)c1`: -7.22%; for `Cc1cccc(CS(=O)(=O)CC(=O)NCCCOC(C)C)c1`: 16.8%.
The same measure for `COc1ccccc1CC(=O)NS(C)(=O)=O`: -10.7%.
Take `CC(NC(=O)NCCCN(C)C)c1ccc2c(c1)CCC(=O)N2` (stereo not drawn): the cytotoxicity at 70.5 h was -10.2%.
With `Cc1ccc(CNC(=O)NCc2cccnc2N(C)C)s1` the figure was -14.6%; with `CC(NC(=O)NCc1cc[nH]n1)c1ccc2c(c1)CCC(=O)N2` (stereo not drawn), -19.8%; with `O=C(O)c1cc(NS(=O)(=O)c2cccc(Cl)c2F)ccc1Cl`, -5.66%.
For `COC(=O)C(NC(=O)COC1CCCC1)c1cc(F)ccc1F` (stereo not drawn), the cytotoxicity at 70.5 h is -11.6%.
With `COc1cc(CN(C(=O)Nc2cccnc2OC)C2CC2)ccc1O` the figure was -19.7%; with `CCOCC(O)CN1CCN(C(=O)c2cc(F)ccc2C)CC1` (stereo not drawn), -18.9%.
The same measure for `Cc1cnc(CNC(=O)NCc2cccnc2N(C)C)s1`: -17.2%.
The same measure for `O=C(O)c1c[nH]c2cc(NS(=O)(=O)c3cccc(Cl)c3F)ccc12`: -10.1%; for `COc1ccccc1CC(=O)NS(=O)(=O)c1cncc(Br)c1`: 4.46%.
As to `Cc1cnn(CCNCC(=O)NCCOc2ccccc2)c1`, the cytotoxicity at 70.5 h worked out at 39.9%.

The values are drawn from ChEMBL document CHEMBL3507680, “University of Dundee, Gates Library screen for HepG2 cell viability”.
